Ends that are not written are not given here.
Tested on: A/WSN/33 H1N1 virus
Type: cell-based, Influenza A virus

Q: RRKKWLVFFVIYFFR [FP4, RRKKWLVFFVIYFFR] was tested. Which knockdown did it give?
A: The knockdown was 100%.
